Measured values reported in US8822699B2, “Heterocyclic compound and use thereof” (Takeda Pharmaceutical Company Limited, priority 2010, dated 2014).
Like-named read-outs stand apart in the source and are kept apart here.

Experiments:
[1] = test system: Aβ42 production in primary nerve cells; experiment: Measurement of amyloid β production inhibition rate using primary nerve cell (Aβ42 sandwich ELISA); type: cell-based; conditions: primary nerve cells from cerebral cortex of SD rat fetus, cultured 3 days with compound, culture supernatant, sandwich ELISA for Aβ42, read-out: Aβ42 production inhibitory activity IC50
Description: Measurement of Amyloid β Production Inhibition Rate Using Primary Nerve Cell
The primary nerve cells were collected from the cerebral cortex of rat fetus (CLEA Japan, Inc.: SD rat, fetal life 17 days of age), and suspended in a neurobasal medium containing B27 supplement, L-glutamine, penicillin-streptomycin (manufactured by Invitrogen) at 500,000 cells/mL. Then, the suspension was seeded in poly L-lysine-coated 96 well plate (manufactured by SUMITOMO BAKELITE) by 100 μL, and cultured at 37° C., 5% CO2 for 7 days. The medium was completely removed, and a new neurobasal medium was added at 75 μL/well. Thereto was added (75 μL/well) a neurobasal medium supplemented with a 2-fold measurement concentration of an evaluation target compound, and the mixture was cultured for 3 days. The culture supernatant was collected from each well, diluted as appropriate, applied to sandwich ELISA between BNT77 antibody-BA27 antibody (for Aβ40) and sandwich ELISA between BNT77 antibody-3005 antibody (for Aβ42), and the amounts of Aβ40 and Aβ42 were measured.
The amyloid β production inhibition rate (%) of the compound was calculated by the following formula. (1−(amyloid β production amount with addition of compound)/(amyloid β production amount without addition of compound))×100
The amyloid β production 50% inhibitory rate (IC50 value) was calculated using the statistical analysis software (SAS Preclinical Package) as the concentration of the compound showing 50% inhibition when the amyloid β production amount without addition of the compound is 100%. In addition, a new neurobasal medium was added (75 μL/well) to the cells after collection of the culture supernatant, and the cells were left standing for about 30 min to reach room temperature. Cell-Titer Glo Luminescent Cell Viability Assay (manufactured by Promega) was added at 75 μL/well, and the plate was shaken for 2 min and reacted for about 10 min.

[2] = test system: Aβ42 (soluble Aβ in hippocampi); experiment: Aβ42 in hippocampi of mice after oral administration (Aβ ELISA); type: in vivo; conditions: C57BL/6J mice, 10 mg/kg orally, hippocampi isolated 3 hours after administration, soluble Aβ42 by two-site sandwich ELISA; for inhibition at 10 mg/kg: Mus musculus, po, 3 h, read-out: Aβ42 production inhibitory activity (% inhibition)
Description: C57BL/6J mice (7-10 weeks old) were purchased from CLEA Japan Inc. Mice were housed in groups and kept on a 12 h-light; 12 h-dark schedule. All mice were given ad libitum access to food and water.
Each test compound was reconstituted in solubilization buffer ([DMSO (Wako)]: [10% Cremophor (Nakarai)+30% polyethylene glycol 400 (Wako)+60% 2 mol/L Citrate buffer (Wako)]=1:9) and orally administrated at 10 mg/kg.
Hippocampi was isolated from animals, 3 hours after test compounds were orally administrated. Hippocampi were homogenized in ice-cold Tris-extraction buffer (50 mmol/L Tris-HCl, pH 7.2, 200 mmol/L sodium chloride, 2% protease-free bovine serum albumin, and 0.01% sodium merthiolate) containing protease inhibitor cocktails (Roche, Switzerland). After centrifugation at 15,000 rpm for 15 minutes, the supernatants were subjected to two-site sandwich ELISA to measure amount of soluble Aβ. Aβ42 was quantitated by two-site sandwich ELISA using BNT77, which recognizes Aβ11-28, as a capture antibody and BC05-HRP as a detector antibody, respectively.

IC50 [1] [nM]	IC50 ([1]; Rattus norvegicus, 72 h) [nM]	SMILES	inhibition at 10 mg/kg [2] [%]	Aβ42 production inhibitory activity (% inhibition) ([2]; 10 mg/kg) [%]
6	–	COc1nc(-c2nnc3n2CCCC3(Oc2ccc(F)c(C(F)(F)F)c2)C(C)(C)O)ccc1-n1cnc(C)c1 (stereo not drawn) [Example 157, 2-{8-[4-fluoro-3-(trifluoromethyl)phenoxy]-3-[6-methoxy-5-(4-methyl-1H-imidazol-1-yl)pyridin-2-yl]-5,6,7,8-tetrahydro[1,2,4]triazolo[4,3-a]pyridin-8-yl}propan-2-ol]	61	–
–	47	COc1nc(-c2nnc3n2CCCC3(Oc2cc(F)c(F)c(F)c2)C(C)(C)O)ccc1-c1cnc(C)o1 (stereo not drawn) [Example 172, 2-{3-[6-methoxy-5-(2-methyl-1,3-oxazol-5-yl)pyridin-2-yl]-8-(3,4,5-trifluorophenoxy)-5,6,7,8-tetrahydro[1,2,4]triazolo[4,3-a]pyridin-8-yl}propan-2-ol]	35	–
78	–	COc1cc(-c2nnc3n2CCCC3(Oc2cc(F)cc(F)c2)C(C)(C)O)ccc1-c1cnc(C)o1 (stereo not drawn) [Example 141, 2-{8-(3,5-difluorophenoxy)-3-[3-methoxy-4-(2-methyl-1,3-oxazol-5-yl)phenyl]-5,6,7,8-tetrahydro[1,2,4]triazolo[4,3-a]pyridin-8-yl}propan-2-ol]	46	–
–	27	COc1nc(-c2nnc3n2CCCC3(Oc2ccc(Cl)c(F)c2)C(C)(C)O)ccc1-n1cnc(C)c1 (stereo not drawn) [Example 1, 2-{8-(4-chloro-3-fluorophenoxy)-3-[6-methoxy-5-(4-methyl-1H-imidazol-1-yl)pyridin-2-yl]-5,6,7,8-tetrahydro[1,2,4]triazolo[4,3-a]pyridin-8-yl}propan-2-ol]	40	–
24	–	COc1cc(-c2nnc3n2CCCC3(Oc2cccc(C(F)(F)F)c2)C(C)(C)O)ccc1-c1cnc(C)o1 (stereo not drawn) [Example 130, 2-{3-[3-methoxy-4-(2-methyl-1,3-oxazol-5-yl)phenyl]-8-[3-(trifluoromethyl)phenoxy]-5,6,7,8-tetrahydro[1,2,4]triazolo[4,3-a]pyridin-8-yl}propan-2-ol]	–	59
32	–	COc1cc(-c2nnc3n2CCCC3(C)c2ccc(Cl)cc2)ccc1-c1cnc(C)o1 (single isomer, unassigned) [Example 4, optically active 8-(4-chlorophenyl)-3-[3-methoxy-4-(2-methyl-1,3-oxazol-5-yl)phenyl]-8-methyl-5,6,7,8-tetrahydro[1,2,4]triazolo[4,3-a]pyridine]	–	–
–	19	COc1cc(-c2nnc3n2CCCC3(Oc2cc(F)c(F)c(F)c2)C(=O)N(C)CC(F)(F)F)ccc1-c1cnc(C)o1 (stereo not drawn) [Example 160, 3-[3-methoxy-4-(2-methyl-1,3-oxazol-5-yl)phenyl]-N-methyl-N-(2,2,2-trifluoro-ethyl)-8-(3,4,5-trifluorophenoxy)-5,6,7,8-tetrahydro-[1,2,4]triazolo[4,3-a]pyridine-8-carboxamide]	–	–
–	360	Cc1ncc(-c2ccc(-c3nnc4n3CCCC4(Oc3cc(F)c(F)c(F)c3)C(C)(C)O)cc2F)o1 (stereo not drawn) [Example 166, 2-{3-[3-fluoro-4-(2-methyl-1,3-oxazol-5-yl)phenyl]-8-(3,4,5-trifluorophenoxy)-5,6,7,8-tetrahydro[1,2,4]triazolo[4,3-a]pyridin-8-yl}propan-2-ol]	–	–
–	123	COc1nc(-c2nnc3n2CCCC3(Oc2ccc(F)c(F)c2)C(C)(C)O)ccc1-n1cnc(C)c1 (stereo not drawn) [Example 135, 2-{8-(3,4-difluorophenoxy)-3-[6-methoxy-5-(4-methyl-1H-imidazol-1-yl)pyridin-2-yl]-5,6,7,8-tetrahydro[1,2,4]triazolo[4,3-a]pyridin-8-yl}propan-2-ol]	–	–
–	40	Cc1ncc(-c2ccc(-c3nnc4n3CCCC4(Oc3ccc(F)c(F)c3)C(C)(C)O)cc2O)o1 (stereo not drawn) [Example 168, 5-[8-(3,4-difluorophenoxy)-8-(1-hydroxy-1-methylethyl)-5,6,7,8-tetrahydro[1,2,4]triazolo[4,3-a]pyridin-3-yl]-2-(2-methyl-1,3-oxazol-5-yl)phenol]	–	–
